Assay results published in article PMC8812461, “Synthesis of New 3-Arylcoumarins Bearing N-Benzyl Triazole Moiety: Dual Lipoxygenase and Butyrylcholinesterase Inhibitors With Anti-Amyloid Aggregation and Neuroprotective Properties Against Alzheimer’s Disease” (Frontiers in Chemistry, 2022).

Assays:
[1] = in vitro; type: cell-based; conditions: rat, PC12 cells, MTT, read-out: PC12 viability percent (cytotoxicity)
Description: The cytotoxic effect of the selected compounds (8l and 8n) on the PC12 cell line was evaluated by using the MTT-based colorimetric assay. First, the PC12 cell line was cultivated in DMEM culture medium, supplemented with fetal bovine serum (10%). […]. Thereafter, the culture medium of each well was replaced by 20 µl MTT solution (5.0 mg/ml) and incubated to form formazan crystals, followed by dissolving them in DMSO (100.0 µl) and recording the related absorbance at 570 nm using a Synergy 2 multimode plate reader (Biotek, Winooski, VT, United States). The viability percent was then calculated according to the control well, where no compound was added to the related well. The mentioned protocol was repeated in triplicates, and the mean ± SEM of the obtained results was reported.

[2] = biological target: T1, BuChE (from equine serum) (Equus caballus, UniProt P81908); assay: biochemical; type: biochemical; conditions: mean ± SEM of three experiments, read-out: eq BuChE IC50
T1 construct: BuChE from equine serum was employed for Ellman’s assay; purchased Merck or Aldrich; host or cells: equine serum
Description: (§1) AChE from electrophorus electricus and BuChE from equine serum was employed for Ellman’s assay. Each compound (5.0 mg) was dissolved in 1.0 ml of DMSO. […] Briefly, a mixture of phosphate buffer (2.0 ml, 0.1 M, pH = 8.0), 60.0 µl of DTNB solution, and 20.0 µl of AChE/BuChE was prepared, and 30.0 µl of the test compounds in different concentrations were then added to the mixture. Next, a solution of the substrate (acetylthiocholine iodide/butyrylthiocholine iodide, 20.0 µl) was added to the mixture after 10 min incubation at 25°C. All experiments were performed in triplicates, and the temperature of all solutions was controlled to be maintained at 25°C. […] The blank solution was used to validate the non-enzymatic hydrolysis of the substrate during the assessment. The blank solution was prepared by a mixture of 2.0 ml of buffer, 30.0 μl of DMSO, 60.0 μl of DTNB, and 20.0 μl of substrate. The rate of the enzymatic hydrolysis of the substrate was calculated, and % inhibition of the compounds was determined. The half maximal inhibitory concentration (IC50) values were graphically determined from inhibition curves (logarithm of the concentration of the tested compound versus percent of the inhibition).

[3] = test system: BV-2 cells; assay: Hydrogen peroxide cell-based assay (extracellular H2O2, amyloid β-induced); parameters: species or system murine; conditions: 10.0 μM compound 3 h before amyloid β1-40 (5.0 μM), 24 h
Description: The BV-2 immortalized murine microglial cell line was cultured in a high-glucose Dulbecco’s modified Eagle medium (DMEM) without phenol red supplemented with 10% of FBS, %1 of L -glutamine, and 1% of penicillin–streptomycin solution. The cells were kept in a moistened atmosphere at 37°C. Quantitation of the extracellular H2O2 produced by the BV-2 cells was detected using the Oxiselect Sta-343 hydrogen peroxide assay according to the kit’s protocol. Briefly, the cells were seeded in a 384-well plate (1,000 cells/well) overnight in 50.0 μl/well of serum and phenol red free culture medium, then treated with 10.0 μM of the compounds for 3 h, prior to amyloid β1-40 treatment (5.0 μM) and incubated for 24 h. An amount of 25.0 μl of medium was collected and mixed with 250.0 μl aqueous working solution. The absorbance values at 595 nm of each well were measured using a BMG Labtech Omega FLUOstar microplate reader. BHT (butylated hydroxytoluene, Cell biolabs) was also tested as a reference antioxidant agent ([Datki et al., 2003]).

[4] = biological target: T2, Aβ1-42 in the presence of AChE (Homo sapiens, UniProt P05067); assay: AChE-induced Aβ1-42 aggregation (ThT assay); type: biochemical; conditions: compound 100.0 μM, AChE 0.01 u/ml
T2 construct: was used to dissolve amyloid β1-40 (Sigma A1075); purchased Sigma (Aβ); Merck or Aldrich (AChE) A1075 (Aβ)

[5] = biological target: T3, Aβ1-42 (Homo sapiens, UniProt P05067); assay: Self-induced Aβ1-42 aggregation (ThT assay); type: biochemical; conditions: for Self-induced Aβ aggregation inhibition relative to donepezil: 100.0 μM, versus donepezil; for Inhibition of self-induced Aβ1-42 aggregation: Aβ1-42 10.0 μM, compound 100.0 μM, ThT
T3 construct: was used to dissolve amyloid β1-40 (Sigma A1075); purchased Sigma A1075

[6] = biological target: T4, BuChE (Equus caballus, UniProt P81908); assay: Kinetic study of BuChE inhibition (Lineweaver–Burk); type: biochemical; conditions: secondary plot; inhibitor 0, 10.0, 20.0, 40.0 µM; read-out: Inhibitory constant (Ki) for BuChE
T4 construct: BuChE from equine serum was employed for Ellman’s assay; purchased Merck or Aldrich; host or cells: equine serum
Description: Kinetics of the BuChE inhibition activity was studied for compound 8l at different inhibitor concentrations (0, 10.0, 20.0, and 40.0 µM) as mentioned in the ChE inhibition assay section. Different concentrations of the substrate (S) and butyrylthiocholine iodide (BuChI) were applied to obtain the initial velocity measurements, in each case. The reciprocal of the S (1/S) was plotted against the initial velocity (1/v) ([Rampa et al., 2000]). […] […]. Ellman’s method was utilized to assess anti-AChE/BuChE activity of the synthesized compounds ([Ellman et al., 1961]). AChE from electrophorus electricus and BuChE from equine serum was employed for Ellman’s assay. Each compound (5.0 mg) was dissolved in 1.0 ml of DMSO. […] Briefly, a mixture of phosphate buffer (2.0 ml, 0.1 M, pH = 8.0), 60.0 µl of DTNB solution, and 20.0 µl of AChE/BuChE was prepared, and 30.0 µl of the test compounds in different concentrations were then added to the mixture. […] The change in the absorbance wavelength of 412 nm was recorded for 1 min. […] The rate of the enzymatic hydrolysis of the substrate was calculated, and % inhibition of the compounds was determined. The half maximal inhibitory concentration (IC50) values were graphically determined from inhibition curves (logarithm of the concentration of the tested compound versus percent of the inhibition).

[7] = biological target: T5, AChE (from electrophorus electricus) (Electrophorus electricus, UniProt O42275); assay: Cholinesterase inhibition assay (Ellman's method), AChE; type: biochemical; conditions: test concentration not given
T5 construct: purchased Merck or Aldrich
Description: as §1

[8] = biological target: T6, 15-LOX (soybean lipoxygenase) (Glycine max, UniProt P08170); assay: Soybean 15-LOX inhibition assay; type: biochemical
T6 construct: purchased Merck or Aldrich
T6 sequence (P08170 1-839): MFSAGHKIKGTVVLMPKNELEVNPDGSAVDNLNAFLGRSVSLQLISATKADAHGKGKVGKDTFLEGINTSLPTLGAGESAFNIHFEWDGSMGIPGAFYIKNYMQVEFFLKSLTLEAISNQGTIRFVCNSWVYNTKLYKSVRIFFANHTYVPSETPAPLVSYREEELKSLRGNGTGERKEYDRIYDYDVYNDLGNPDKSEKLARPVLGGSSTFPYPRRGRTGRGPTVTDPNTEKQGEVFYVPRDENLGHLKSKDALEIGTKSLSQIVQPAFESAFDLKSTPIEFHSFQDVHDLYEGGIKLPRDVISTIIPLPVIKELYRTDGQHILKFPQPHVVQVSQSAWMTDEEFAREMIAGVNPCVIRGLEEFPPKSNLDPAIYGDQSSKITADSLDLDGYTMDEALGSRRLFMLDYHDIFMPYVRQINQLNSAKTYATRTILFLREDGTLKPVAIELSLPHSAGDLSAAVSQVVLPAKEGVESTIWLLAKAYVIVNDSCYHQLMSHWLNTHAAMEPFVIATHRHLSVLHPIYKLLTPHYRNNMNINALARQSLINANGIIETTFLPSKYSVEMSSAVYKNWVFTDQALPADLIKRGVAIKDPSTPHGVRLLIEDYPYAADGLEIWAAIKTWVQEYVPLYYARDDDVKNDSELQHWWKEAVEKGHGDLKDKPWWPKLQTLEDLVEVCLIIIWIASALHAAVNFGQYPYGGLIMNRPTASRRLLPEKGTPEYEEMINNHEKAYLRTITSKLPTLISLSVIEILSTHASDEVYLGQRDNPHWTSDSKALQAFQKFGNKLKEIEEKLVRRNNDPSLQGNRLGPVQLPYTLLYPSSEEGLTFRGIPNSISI
Description: A solution of the target compound was prepared in DMSO, and it was diluted with phosphate buffer (0.1 M, pH = 8.0).

T3 sequence (P05067 672-711): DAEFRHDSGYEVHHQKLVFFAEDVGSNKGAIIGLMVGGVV
T1 sequence (P81908 whole entry): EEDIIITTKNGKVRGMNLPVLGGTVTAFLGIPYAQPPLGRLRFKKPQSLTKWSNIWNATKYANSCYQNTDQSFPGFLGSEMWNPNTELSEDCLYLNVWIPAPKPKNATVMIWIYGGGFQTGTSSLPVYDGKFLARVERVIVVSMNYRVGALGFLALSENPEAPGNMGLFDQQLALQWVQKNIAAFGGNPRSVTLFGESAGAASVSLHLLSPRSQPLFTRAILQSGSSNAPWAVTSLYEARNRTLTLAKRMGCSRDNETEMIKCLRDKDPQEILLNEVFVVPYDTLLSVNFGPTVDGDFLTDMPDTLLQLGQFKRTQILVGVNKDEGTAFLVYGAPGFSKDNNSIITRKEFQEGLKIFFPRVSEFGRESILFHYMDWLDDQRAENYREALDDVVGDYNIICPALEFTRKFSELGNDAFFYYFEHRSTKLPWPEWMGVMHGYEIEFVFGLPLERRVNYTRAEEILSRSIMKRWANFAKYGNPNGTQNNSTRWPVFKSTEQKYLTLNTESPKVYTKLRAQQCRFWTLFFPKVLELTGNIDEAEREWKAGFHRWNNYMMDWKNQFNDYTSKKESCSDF
T5 sequence (O42275 24-633): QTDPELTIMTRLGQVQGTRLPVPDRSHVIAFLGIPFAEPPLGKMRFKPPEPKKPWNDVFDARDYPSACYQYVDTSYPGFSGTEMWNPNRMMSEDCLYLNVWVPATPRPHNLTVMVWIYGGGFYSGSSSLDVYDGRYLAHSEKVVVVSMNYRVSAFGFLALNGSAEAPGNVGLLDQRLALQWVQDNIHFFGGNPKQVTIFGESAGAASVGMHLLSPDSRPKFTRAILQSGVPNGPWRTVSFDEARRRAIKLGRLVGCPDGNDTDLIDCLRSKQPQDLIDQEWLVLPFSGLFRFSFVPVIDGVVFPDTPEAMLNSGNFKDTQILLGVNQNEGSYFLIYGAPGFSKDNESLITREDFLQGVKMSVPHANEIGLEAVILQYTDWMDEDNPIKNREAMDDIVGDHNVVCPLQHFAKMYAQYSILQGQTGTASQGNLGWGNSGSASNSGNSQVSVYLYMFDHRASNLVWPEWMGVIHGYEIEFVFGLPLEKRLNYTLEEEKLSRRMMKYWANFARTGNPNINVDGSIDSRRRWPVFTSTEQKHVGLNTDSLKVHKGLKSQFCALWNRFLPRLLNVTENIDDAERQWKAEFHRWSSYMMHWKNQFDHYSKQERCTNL
T2 sequence (P05067 672-711): as the sequence (P05067 672-711) above
T4 sequence (P81908 whole entry): as the sequence (P81908 whole entry) above

Row | Structure (SMILES) | viability at 24 h, 50 µM [1] [%] | IC50 [2] [µM] | H2O2 level of BV-2 cells (% ± SEM of control) [3] | inhibition at 100 µM [4] [%] | Self-induced Aβ aggregation inhibition relative to donepezil [5] [times] | Inhibition of self-induced Aβ1-42 aggregation [5] [%] | Ki [6] [µM] | ee AChE %inhib. [7] [%] | IC50 [8] [µM]
1 | COc1cccc(Cn2cc(COc3ccc(-c4cc5ccccc5oc4=O)cc3)nn2)c1 [8l, 3-(4-((1-(3-Methoxybenzyl)-1H-1,2,3-triazol-4-yl)methoxy)phenyl)-2H-chromen-2-one] | 96.5 ± 0.9 | 19.5 ± 0.9 | 97.6 ± 6.1 % of control | 36.2 ± 6.1 | 1.44 | 61.3 ± 4.8 | 14.1 | 16.5 | 39.1 ± 1.1
2 | Cc1cc(C(C)(C)C)c(O)c(C(C)(C)C)c1 [BHT, butylated hydroxytoluene, reference compound] | – | – | 114.4 ± 8.5 % of control | – | – | – | – | – | –
3 | COc1cccc2cc(-c3ccc(OCc4cn(Cc5ccccc5)nn4)cc3)c(=O)oc12 [8n, 3-(4-((1-Benzyl-1H-1,2,3-triazol-4-yl)methoxy)phenyl)-8-methoxy-2H-chromen-2-one] | 95.2 ± 1.1 | 45.1 ± 1.3 | 122.4 ± 8.3 % of control | 25.1 ± 8.7 | 1.79 | 76.2 ± 6.4 | – | 49.9 | 42.5 ± 1.7
